According to publication PMC8457007 (RNA, 2021):

Molecular target: CPSF73 (Homo sapiens, UniProt Q9UKF6)
Experiment: gel-based end-point fluorescence nuclease assay with reconstituted U7 machinery
Assay type: biochemical

IC50: 850 nM
Compound: O=C(O)CCc1cccc2c1B(O)OC2 [AN3661]
